Values quoted from earlier work as cited in patent US20160074480A1, “INNOVATIVE METHODS OF TREATMENTING TUBERCULOSIS” (priority 2015, published 2016).

Tested on: TB bacteria
Conditions: laboratory dishes, including strains resistant to available anti-tuberculosis drug; cited from earlier work

For `O=C1O[C@H]([C@@H](O)CO)C(O)=C1O` [Vitamin C, L-ascorbic acid], the “killing of TB bacteria” value is listed as “killed TB bacteria”.
